# Measurements taken from ChEMBL document CHEMBL5506055, “Hit-to-Lead Optimization of the Natural Product Oridonin as Novel NLRP3 Inflammasome Inhibitors with Potent Anti-Inflammation Activity” (J Med Chem, 2024).
# Calls of active or inactive are those of the source. The rule behind the calls is not given here.
# How the values were obtained:
# [1] = biological target: NACHT, LRR and PYD domains-containing protein 3 (Mus musculus) (UniProt Q8R4B8); assay: Inhibition of NLRP3 inflammasome activation in LPS/ATP-induced C57BL/6 mouse BMDMs assessed as reduction in TNFalpha production at 50 to 200 nM preincubated with compound prior to LPS addition for 30 mins and further stimulated with ATP for 30 mins by Western blotting analysis; type: cell-based; settings: BMDM, dose 50-200 nM, time 60.0 min
# [2] = system: Mus musculus; assay: Antiinflammatory activity in C57BL/6 mouse model of arthritis assessed as reduction in MSU-induced pro-caspase 1 expression in joints at 12.5 to 25 mg/kg, iv measured upto 24 hrs; type: functional, organism-based; settings: dose 12.5-25 mg/kg
# [3] = biological target: NACHT, LRR and PYD domains-containing protein 3 (Mus musculus) (UniProt Q8R4B8); assay: Binding affinity to NLRP3 in mouse BMDMs at 100 uM incubated for 30 mins by CETSA; type: cell-based; settings: BMDM
# [4] = biological target: NACHT, LRR and PYD domains-containing protein 3 (Mus musculus) (UniProt Q8R4B8); assay: Inhibition of NLRP3 inflammasome activation in LPS/ATP-induced C57BL/6 mouse BMDMs assessed as inhibition of ASC oligomerization by measuring reduction in pro-caspase-1 expression at 50 to 200 nM preincubated with LPS for 4 hrs followed by compound addition for 30 mins and further stimulated with ATP for 30 mins by Western blotting analysis; type: cell-based; settings: BMDM, dose 50-200 nM, time 1.0 hrs
# [5] = biological target: NACHT, LRR and PYD domains-containing protein 3 (Mus musculus) (UniProt Q8R4B8); assay: Binding affinity to NLRP3 in mouse BMDMs at 10^-2 to 10^3 uM incubated for 10 to 90 mins by ITDRF; type: cell-based; settings: BMDM, dose 0.01-1000 µM, time 10-90 min
# [6] = biological target: NACHT, LRR and PYD domains-containing protein 3 (Mus musculus) (UniProt Q8R4B8); assay: Inhibition of NLRP3 inflammasome activation in LPS/ATP-induced C57BL/6 mouse BMDMs assessed as reduction in maturation of pro-caspase-1 preincubated with LPS for 4 hrs followed by compound addition for 30 mins and further stimulated with ATP for 30 mins by ELISA; type: cell-based; settings: BMDM, time 1.0 hrs
# [7] = system: Mus musculus; assay: Antiinflammatory activity in MSU-induced C57BL/6 mouse model of arthritis assessed as reduction in inflammatory cell infiltration at 100 mg/kg, po measured after 24 hrs; type: functional, organism-based
# [8] = Stability in rat plasma assessed as half life measured upto 8 hrs; type: ADME, cell-free
# [9] = AUC in ICR mouse at 1 mg/kg, iv measured upto 24 hrs by LC-MS/MS method; type: ADME, organism-based; settings: in vivo, iv, 1 mg/kg, 24 h
# [10] = AUC in ICR mouse at 10 mg/kg, po measured upto 24 hrs by LC-MS/MS method; type: ADME, organism-based; settings: in vivo, po, 10 mg/kg, 24 h
# [11] = biological target: T1, Interferon-inducible protein AIM2 (Mus musculus) (UniProt Q91VJ1); assay: Inhibition of AIM2 inflammasome activation in LPS/flagellin-induced C57BL/6 mouse BMDMs at 200 nM […] for 4 hrs followed by compound addition for 30 mins and further stimulated with flagellin for 4 hrs; type: cell-based; settings: BMDM, time 4.5 hrs
# T1 sequence (whole entry): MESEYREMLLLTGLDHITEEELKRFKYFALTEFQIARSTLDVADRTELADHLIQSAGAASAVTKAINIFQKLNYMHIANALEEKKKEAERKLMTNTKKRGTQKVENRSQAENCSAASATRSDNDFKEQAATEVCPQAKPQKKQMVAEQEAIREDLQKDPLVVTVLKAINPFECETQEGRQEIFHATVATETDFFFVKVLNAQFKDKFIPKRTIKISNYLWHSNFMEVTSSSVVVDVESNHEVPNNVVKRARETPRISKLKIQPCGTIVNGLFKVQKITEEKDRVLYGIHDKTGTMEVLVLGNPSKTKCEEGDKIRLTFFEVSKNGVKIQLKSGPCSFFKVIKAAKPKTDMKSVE
# [12] = biological target: NACHT, LRR and PYD domains-containing protein 3 (Mus musculus) (UniProt Q8R4B8); assay: Inhibition of NLRP3 inflammasome activation in LPS/ATP-induced C57BL/6 mouse BMDMs assessed as reduction in IL-1beta secretion at 200 nM preincubated with LPS for 4 hrs followed by compound addition for 30 mins and further stimulated with ATP for 30 mins by ELISA relative to control; type: cell-based; settings: BMDM, time 1.0 hrs
# [13] = biological target: NACHT, LRR and PYD domains-containing protein 3 (Mus musculus) (UniProt Q8R4B8); assay: Inhibition of NLRP3 inflammasome activation in LPS/ATP-induced C57BL/6 mouse BMDMs assessed as reduction in TNFalpha level at 1000 nM preincubated for 30 mins followed by LPS addition for 4 hrs and further ATP stimulation for 30 mins by ELISA; type: cell-based; settings: BMDM, time 5.0 hrs
# [14] = Oral bioavailability in ICR mouse at 10 mg/kg measured upto 24 hrs by LC-MS/MS method; type: ADME, organism-based; settings: in vivo, po, 10 mg/kg, 24 h
# [15] = biological target: NACHT, LRR and PYD domains-containing protein 3 (Mus musculus) (UniProt Q8R4B8); assay: Inhibition of NLRP3 inflammasome activation in LPS/ATP-induced C57BL/6 mouse BMDMs assessed as reduction in IL-1beta secretion at 100 nM preincubated with LPS for 4 hrs followed by compound addition for 30 mins and further stimulated with ATP for 30 mins by ELISA relative to control; type: cell-based; settings: BMDM, time 1.0 hrs
# [16] = Stability in rat liver microsomes assessed as half life preincubated for 5 mins with NADPH followed by compound addition and measured upto 120 mins by LC-MS/MS analysis; type: ADME, Microsome; settings: time < 125 min
# [17] = system: Mus musculus; assay: Antiinflammatory activity in MSU-induced C57BL/6 mouse model of arthritis at 100 mg/kg, po measured upto 24 hrs; type: functional, organism-based
# [18] = biological target: Voltage-gated inwardly rectifying potassium channel KCNH2 (Homo sapiens, UniProt Q12809); assay: Inhibition of human ERG expressed in CHO cells; type: toxicity, cell-based
# [19] = system: BMDM; assay: Inhibition of mitochondrial damage in mouse BMDMs at 200 nM preincubated with LPS for 4 hrs followed by compound addition for 30 mins and further stimulated with ATP for 30 mins by confocal microscopic analysis; type: functional, cell-based; settings: time 1.0 hrs
# [20] = system: Mus musculus; assay: Antiinflammatory activity in MSU-induced C57BL/6 mouse model of arthritis assessed as reduction in inflammatory cell infiltration at 12.5 to 25 mg/kg, iv measured after 24 hrs; type: functional, organism-based; settings: dose 12.5-25 mg/kg
# [21] = Stability in human plasma assessed as half life measured upto 8 hrs; type: ADME, cell-free
# [22] = biological target: NACHT, LRR and PYD domains-containing protein 3 (Mus musculus) (UniProt Q8R4B8); assay: Inhibition of NLRP3 inflammasome activation in LPS-induced C57BL/6 mouse BMDMs assessed as reduction in NLRP3 mRNA level at 50 to 200 nM preincubated for 24 hrs followed by LPS addition for 4 hrs by qRT-PCR analysis; type: cell-based; settings: BMDM, dose 50-200 nM, time 28.0 hrs
# [23] = biological target: NACHT, LRR and PYD domains-containing protein 3 (Mus musculus) (UniProt Q8R4B8); assay: Inhibition of NLRP3 inflammasome activation in LPS/ATP-induced C57BL/6 mouse BMDMs assessed as reduction in IL-1beta secretion at 50 to 200 nM preincubated with LPS for 4 hrs followed by compound addition for 30 mins and further stimulated with ATP for 30 mins by Western blotting analysis relative to oridonin; type: cell-based; settings: BMDM, dose 50-200 nM, time 1.0 hrs
# [24] = biological target: NACHT, LRR and PYD domains-containing protein 3 (Mus musculus) (UniProt Q8R4B8); assay: Inhibition of NLRP3 inflammasome activation in LPS/nigericin-induced C57BL/6 mouse BMDMs at 200 nM preincubated with LPS for 4 hrs followed by compound addition for 30 mins and further stimulated with nigericin for 30 mins by ELISA; type: cell-based; settings: BMDM, time 1.0 hrs
# [25] = biological target: NACHT, LRR and PYD domains-containing protein 3 (Mus musculus) (UniProt Q8R4B8); assay: Inhibition of NLRP3 inflammasome activation in LPS-induced C57BL/6 mouse BMDMs assessed as effect on phosphorylated p65 expression at 50 to 200 nM preincubated for 24 hrs followed by LPS addition for 4 hrs by Western blotting analysis; type: cell-based; settings: BMDM, dose 50-200 nM, time 28.0 hrs
# NACHT, LRR and PYD domains-containing protein 3 (Mus musculus), sequence (Q8R4B8 whole entry, the tested form may be a part): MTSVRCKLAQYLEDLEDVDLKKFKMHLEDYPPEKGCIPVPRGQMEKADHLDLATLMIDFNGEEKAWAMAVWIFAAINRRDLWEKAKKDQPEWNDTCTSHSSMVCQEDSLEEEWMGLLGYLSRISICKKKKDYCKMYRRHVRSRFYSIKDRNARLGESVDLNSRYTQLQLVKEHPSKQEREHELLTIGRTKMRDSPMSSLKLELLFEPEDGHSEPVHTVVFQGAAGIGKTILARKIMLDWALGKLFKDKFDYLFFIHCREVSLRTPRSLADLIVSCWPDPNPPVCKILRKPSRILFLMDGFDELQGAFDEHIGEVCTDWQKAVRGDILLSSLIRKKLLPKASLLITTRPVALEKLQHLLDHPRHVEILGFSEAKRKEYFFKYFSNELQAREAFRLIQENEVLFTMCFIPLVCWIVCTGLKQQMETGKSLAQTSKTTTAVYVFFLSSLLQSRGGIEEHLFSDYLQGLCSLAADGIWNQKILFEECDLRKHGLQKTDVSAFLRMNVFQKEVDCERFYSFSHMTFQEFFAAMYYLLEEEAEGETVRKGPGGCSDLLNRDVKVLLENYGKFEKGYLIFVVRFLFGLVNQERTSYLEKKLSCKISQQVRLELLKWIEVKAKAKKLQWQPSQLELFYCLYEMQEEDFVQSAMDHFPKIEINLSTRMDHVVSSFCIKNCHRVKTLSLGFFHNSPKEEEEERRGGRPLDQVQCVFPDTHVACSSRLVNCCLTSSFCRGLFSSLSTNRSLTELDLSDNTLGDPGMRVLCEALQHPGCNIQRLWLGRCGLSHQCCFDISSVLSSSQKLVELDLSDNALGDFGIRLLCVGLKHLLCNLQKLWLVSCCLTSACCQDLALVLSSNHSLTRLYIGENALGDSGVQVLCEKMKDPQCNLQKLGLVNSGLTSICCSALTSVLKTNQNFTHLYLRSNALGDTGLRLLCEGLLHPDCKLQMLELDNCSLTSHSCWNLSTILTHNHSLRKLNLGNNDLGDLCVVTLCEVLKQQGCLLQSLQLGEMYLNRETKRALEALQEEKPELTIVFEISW
# Voltage-gated inwardly rectifying potassium channel KCNH2, sequence (Q12809 whole entry): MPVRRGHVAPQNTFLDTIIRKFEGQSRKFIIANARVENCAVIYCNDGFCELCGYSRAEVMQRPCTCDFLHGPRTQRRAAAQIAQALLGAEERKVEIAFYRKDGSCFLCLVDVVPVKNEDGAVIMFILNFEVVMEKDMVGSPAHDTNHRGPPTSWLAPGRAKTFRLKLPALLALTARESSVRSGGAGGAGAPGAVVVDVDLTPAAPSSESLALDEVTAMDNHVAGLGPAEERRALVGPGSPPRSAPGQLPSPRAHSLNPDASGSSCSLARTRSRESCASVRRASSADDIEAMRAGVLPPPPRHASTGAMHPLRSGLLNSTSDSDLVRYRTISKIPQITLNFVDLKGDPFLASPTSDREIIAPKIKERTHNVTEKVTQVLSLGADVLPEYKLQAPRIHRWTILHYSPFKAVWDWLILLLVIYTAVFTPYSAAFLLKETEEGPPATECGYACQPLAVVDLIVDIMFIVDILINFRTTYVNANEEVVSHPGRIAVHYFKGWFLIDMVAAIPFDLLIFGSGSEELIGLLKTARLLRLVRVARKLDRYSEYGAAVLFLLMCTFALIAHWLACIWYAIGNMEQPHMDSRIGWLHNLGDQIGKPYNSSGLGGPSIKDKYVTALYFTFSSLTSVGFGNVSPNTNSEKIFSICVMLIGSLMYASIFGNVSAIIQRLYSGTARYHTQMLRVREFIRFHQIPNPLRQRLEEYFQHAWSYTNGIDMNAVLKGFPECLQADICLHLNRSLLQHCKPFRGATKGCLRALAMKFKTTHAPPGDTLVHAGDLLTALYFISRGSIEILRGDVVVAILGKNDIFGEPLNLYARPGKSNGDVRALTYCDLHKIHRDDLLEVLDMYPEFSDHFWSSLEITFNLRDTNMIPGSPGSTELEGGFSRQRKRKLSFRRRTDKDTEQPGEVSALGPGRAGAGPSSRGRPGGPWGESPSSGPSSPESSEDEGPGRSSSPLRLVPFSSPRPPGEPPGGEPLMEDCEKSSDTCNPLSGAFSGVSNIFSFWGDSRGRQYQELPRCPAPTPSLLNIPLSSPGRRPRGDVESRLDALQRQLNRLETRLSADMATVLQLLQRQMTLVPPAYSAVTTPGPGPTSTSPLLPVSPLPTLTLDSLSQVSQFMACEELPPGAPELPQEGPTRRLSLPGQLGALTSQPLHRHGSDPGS
structure (smiles),measurement,setting,value
C=C1C(=O)[C@]23[C@H](O)[C@H]1CC[C@H]2[C@]12C=CCC(C)(C)[C@H]1[C@H](O)[C@@]3(OCCC(=O)O)OC2,inhibition,[1],inactive
same,Activity,[2],inactive
same,Activity,[3],Active
same,inhibition,[4],inactive
same,Activity,[5],Active
same,inhibition,[6],Dose-Dependent Effect
same,Activity,[7],Active
same,half-life,[8],6.21 h
same,AUC,[9],242 ng·h/mL
same,AUC,[10],525.5 ng·h/mL
same,inhibition,[11],Active
same,inhibition,[12],87.5%
same,inhibition,[13],Active
same,F,[14],9%
same,inhibition,[15],64.3%
same,half-life,[16],3.19 h
same,Activity,[17],Active
same,IC50,[18],> 40 µM
same,inhibition,[19],inactive
same,Activity,[20],Active
same,half-life,[21],6.92 h
same,inhibition,[22],inactive
same,inhibition,[23],Active
same,inhibition,[24],Active
same,inhibition,[25],inactive
